Entries after “also recorded” stand apart in the source; their conditions may differ.

Data set [1] deals with NIH/3T3 cell line - immortalized mouse fibroblasts. Briefly: Crystal violet cytotoxicity test in normal cells. Type of data set: cell-based. Particulars: summary statement; normal cells NIH/3T3 and PER49. The text has this: To evaluate the toxicity of the tested compound on normal cells, the NIH/3T3 cell line - immortalized mouse fibroblasts and normal pericytes (PER49) were used.
As a research model, colon cancer and lung cancer cell lines (sensitive lines) were used, including SW620, SW480, and COR-L23, respectively, which are characterized by the KRASG12V gene mutation and lack of other alterations in genes belonging to the RAS protein signaling pathway, as well as a stable line of normal cells (mouse fibroblasts), which serve as a platform for evaluating the impact of tested compounds on non-cancer cells. Below is the result for one of the analyzed cell lines with the mutation. Similar differences in IC50 values compared to normal cells were obtained for the other cell lines mentioned above with the RASG12V mutation.
The effect of molecules on the biology of selected cell lines to assess their cytotoxicity using the IC50 indicator was carried out according to the protocol below: • 1. The cells of the tested lines were seeded in wells of a 96-well plate at specified densities. • 2. After seeding, the cells were subjected to a 24-hour incubation in medium with a 1% and 2.5% addition of serum (sensitive lines) or in medium with a 0.5% addition of serum (normal line). • 3. The cells were exposed to selected molecules at selected concentrations. The control was provided by the culture medium without any added compounds. Concentrations of the tested molecules [uM]: • □ NIH3T3: 500; 250; 125; 62,5; 31,25 • □ SW620: 60; 30; 15; 7,5; 3,75 • 4. After 72 hours of incubation, the culture medium was removed and the cells were washed twice with buffer saline solution (PBS). Then, the cells were incubated for 10 minutes with a 0.1% solution of crystal violet at room temperature (Merck Millipore). • 5. After 10 minutes, the crystal violet solution was removed and the wells of the 96-well plate were washed twice with PBS solution. • 4. 50% ice-cold acetic acid solution was added to each well and incubated again for 10 minutes at room temperature on a shaker at 650 rpm. • 5. Absorbance measurement was performed using a plate reader, at a wavelength of λ = 540 nm

The next data set concerns SW480 cell line. Description: Western Blot analysis of the RAS-controlled signal transduction pathway in a cancer cell line expressing KRASG12V. The format is cell-based. The settings on record: SW480 cell line with RASG12V mutation; 1, 5 and 10 µM; 24 hours; serum-free. The source says:
Analysis of the impact of the tested compound on the signal transduction pathway controlled by RAS family proteins in cancer cell lines expressing KRASG12V based on the Western Blot method.
The example illustrates the impact of the PER154A and PER160A molecules on the signal transduction pathway in the cancer cell line SW480.
• 1. SW480 cell line at 80-90% confluence was rinsed with PBS without Mg2+ and Ca2+ ions. Remove PBS. • 2. Cells were detached from the vessel using Trypsin-EDTA (0.05%, 1x) for 1-3 minutes at 37°C. • 3. Cells were transferred to a 15 ml tube, centrifuged (200xg, 4 min) and suspended in DMEM High Glucose (HG) medium with 10% bovine serum and antibiotics. • 4. Cells were counted. • 5. 5x10^5 cells were added to each well of a 6-well plate for adherent culture. • 6. The above medium was replenished and left for approximately 24 hours.
• 7. Cells were washed 2-3 times with buffered saline solution without Mg2+ and Ca2+ ions. PBS was carefully removed each time. • 8. 2 ml of DMEM HG medium with antibiotics and without serum was added, left for approximately 24 hours.
• 9. The cells were washed 2-3 times with buffered saline without Mg2+ and Ca2+ ions. PBS was carefully removed each time. • 10. […]

Consider `O=C(Nc1ccc(F)cc1)c1ccc2c(c1)C1C3CCC(C3)C1C(c1ccccc1)N2` (stereo not shown) [PER160A], for which the “toxicity against normal cells” value in data set [1] is “no toxicity”. In addition, the “impact on downstream signal transduction pathways in relation to RASG12V (AKT, ERK phosphorylation)” value in the data set with SW480 cell line is “Significant impact; also recorded: blocks”.

As for `O=C(Nc1ccc2c(c1)OCCO2)c1ccc2c(c1)C1C3CCC(C3)C1C(c1ccccc1)N2` (stereo not shown) [PER154A], the “toxicity against normal cells” value in data set [1] was “no toxicity”. The “impact on downstream signal transduction pathways in relation to RASG12V (AKT, ERK phosphorylation)” value in the data set with SW480 cell line is on record as “Significant impact; also recorded: blocks”.

(Values after patent publication EP4574151A1, “INHIBITORS OF G12V-MUTATED RAS PROTEIN TO TREAT CANCER” (Personather Spolka Z Ograniczona Odpowiedzialnoscia, priority 2023, dated 2025).)
